According to PubChem BioAssay AID248 (DTP/NCI, 2004):
Values joined by “and” are separate entries in the source; they are usually repeats but may differ in a detail not shown here. Equal entries are not always repeated. Inconclusive results and toxic doses are left out. Rule as the data show it: active = T/C of 150% or more; inactive = T/C below 125%.

Tested on: L1210 leukemia ip in BDF1 mice, survival T/C
Experiment: NCI In Vivo Anticancer Drug Screen. Data for tumor model L1210 Leukemia (intraperitoneal) in B6D2F1 (BDF1) mice
Conditions: endpoint: mean survival time, higher = longer survival
Summary of the method: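 Tumor was transplanted into mice, which were then dosed with test compound or vehicle alone. Survival was recorded for each group, and the treated figure was expressed relative to the control figure.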

[1] = dose: 100.0 mg/kg/injection, schedule: Q01DX009 (ip), vehicle: Klucel (hydroxypropylcellulose) (HPC)
[2] = dose: 100.0 mg/kg/injection, schedule: Q04DX002 (ip), vehicle: Klucel (hydroxypropylcellulose) (HPC)
[3] = dose: 100.0 mg/kg/injection, schedule: Q04DX003 (ip), vehicle: Klucel (hydroxypropylcellulose) (HPC)
[4] = dose: 200.0 mg/kg/injection, schedule: Q01DX009 (ip), vehicle: Klucel (hydroxypropylcellulose) (HPC)
[5] = dose: 200.0 mg/kg/injection, schedule: Q04DX002 (ip), vehicle: Klucel (hydroxypropylcellulose) (HPC)
[6] = dose: 200.0 mg/kg/injection, schedule: Q04DX003 (ip), vehicle: Klucel (hydroxypropylcellulose) (HPC)
[7] = dose: 400.0 mg/kg/injection, schedule: Q01DX009 (ip), vehicle: Klucel (hydroxypropylcellulose) (HPC)
[8] = dose: 400.0 mg/kg/injection, schedule: Q04DX002 (ip), vehicle: Klucel (hydroxypropylcellulose) (HPC)
[9] = dose: 400.0 mg/kg/injection, schedule: Q04DX003 (ip), vehicle: Klucel (hydroxypropylcellulose) (HPC)
[10] = dose: 100.0 mg/kg/injection, schedule: Q01DX001 (ip), vehicle: saline
[11] = dose: 100.0 mg/kg/injection, schedule: Q01DX009 (ip), vehicle: saline with Tween-80
[12] = dose: 200.0 mg/kg/injection, schedule: Q01DX009 (ip), vehicle: saline with Tween-80
[13] = dose: 400.0 mg/kg/injection, schedule: Q01DX009 (ip), vehicle: saline with Tween-80
[14] = dose: 100.0 mg/kg/injection, schedule: Q01DX001 (ip), vehicle: carboxymethylcellulose (CMC)
[15] = dose: 200.0 mg/kg/injection, schedule: Q01DX001 (ip), vehicle: carboxymethylcellulose (CMC)
[16] = dose: 50.0 mg/kg/injection, schedule: Q01DX009 (ip), vehicle: Klucel (hydroxypropylcellulose) (HPC)
[17] = dose: 12.5 mg/kg/injection, schedule: Q01DX009 (ip), vehicle: Klucel (hydroxypropylcellulose) (HPC)
[18] = dose: 25.0 mg/kg/injection, schedule: Q01DX009 (ip), vehicle: Klucel (hydroxypropylcellulose) (HPC)
[19] = dose: 100.0 mg/kg/injection, schedule: Q04DX003 (ip), vehicle: saline with Tween-80
[20] = dose: 200.0 mg/kg/injection, schedule: Q04DX003 (ip), vehicle: saline with Tween-80
[21] = dose: 400.0 mg/kg/injection, schedule: Q04DX003 (ip), vehicle: saline with Tween-80

Measured: T/C

O=C(O)c1ccccc1CBr
inactive: dose: 100.0 mg/kg/injection, schedule: Q01DX005 (ip), vehicle: Klucel (hydroxypropylcellulose) (HPC) 97 % of control | [1] 97 % of control | [2] 96 % of control | [3] 93 % of control | dose: 200.0 mg/kg/injection, schedule: Q01DX005 (ip), vehicle: Klucel (hydroxypropylcellulose) (HPC) 105 % of control | [4] 97 % of control | [5] 100 % of control | [6] 93 % of control | dose: 400.0 mg/kg/injection, schedule: Q01DX005 (ip), vehicle: Klucel (hydroxypropylcellulose) (HPC) 101 % of control | [7] 97 % of control | [8] 93 % of control | [9] 105 % of control

Cc1cc(Cl)cc(Cl)c1OCC(=O)O
inactive: [2] 98 % of control | [5] 95 % of control | [8] 95 % of control

Cc1cc(C)c(NC(=O)C(Br)C(Br)c2ccccc2)c(C)c1 (configuration not stated)
inactive: [1] 98 % of control | [4] 98 % of control | [7] 98 % of control

O=C(N/N=C\c1cc(=O)[nH]c(=O)[nH]1)c1ccccc1
inactive: [10] 100 % of control

O=C1C=CC(=O)N1CCCCCCCCCCN1C(=O)C=CC1=O
inactive: dose: 1.0 mg/kg/injection, schedule: Q01DX Z (ip), vehicle: methylcellulose (MC) 94 % of control | dose: 1.4 mg/kg/injection, schedule: Q01DX Z (ip), vehicle: methylcellulose (MC) 96 % of control | dose: 2.2 mg/kg/injection, schedule: Q01DX Z (ip), vehicle: methylcellulose (MC) 90 % of control

Cn1c(C(=O)O)cc2ccccc21
inactive: [1] 110 % of control | [4] 112 % of control | [7] 96 % of control

COC1(OC)C(Cl)=C(Cl)C2C1C1(Cl)C(Cl)=C(Cl)C2(Cl)C1(OC)OC (configuration not stated)
inactive: [11] 98 % of control | [12] 98 % of control | [13] 96 % of control

COC(=N)Cc1ccc(F)cc1
inactive: dose: 75.0 mg/kg/injection, schedule: Q01DX009 (ip), vehicle: saline with Tween-80 111 % of control | dose: 150.0 mg/kg/injection, schedule: Q01DX009 (ip), vehicle: saline with Tween-80 112 % of control | dose: 300.0 mg/kg/injection, schedule: Q01DX009 (ip), vehicle: saline with Tween-80 112 % of control

O=C(CC(=O)c1ccco1)c1ccco1
inactive: [10] 100 % of control | dose: 200.0 mg/kg/injection, schedule: Q01DX001 (ip), vehicle: saline 102 % of control | dose: 400.0 mg/kg/injection, schedule: Q01DX001 (ip), vehicle: saline 96 % of control

COc1cc2c(cc1OC)C(Cc1ccc(OC(=O)O)cc1)=NCC2
inactive: [14] 102 % of control | [15] 102 % of control

NS(=O)(=O)c1ccc(N=Nc2ncc[nH]2)cc1
inactive: [16] 94 % of control | [1] 94 % of control | [4] 94 % of control

CC(C)CCCC(C)C1CCC2C3CCC4CC(=O)CCC4(C)C3CCC12C (configuration not stated)
inactive: [17] 104 % of control | [18] 107 % of control and 90 % of control | [1] 90 % of control | [2] 87 % of control | [5] 93 % of control | [8] 107 % of control

C(=N\n1cnnc1)/c1ccc2c(c1)CCC2
inactive: [19] 94 % of control | [20] 112 % of control | [21] 98 % of control

Cc1ccc(C(C)(C)C)c(OCC2=NCCN2)c1
inactive: dose: 10.0 mg/kg/injection, schedule: Q04DX003 (ip), vehicle: Klucel (hydroxypropylcellulose) (HPC) 96 % of control | [17] 86 % of control | dose: 20.0 mg/kg/injection, schedule: Q04DX003 (ip), vehicle: Klucel (hydroxypropylcellulose) (HPC) 90 % of control | [18] 96 % of control | dose: 40.0 mg/kg/injection, schedule: Q04DX003 (ip), vehicle: Klucel (hydroxypropylcellulose) (HPC) 96 % of control | [16] 104 % of control

Cc1cc(=S)cc(C)o1
inactive: dose: 100.0 mg/kg/injection, schedule: Q04DX002 (ip), vehicle: gum acacia 93 % of control | dose: 200.0 mg/kg/injection, schedule: Q04DX002 (ip), vehicle: gum acacia 109 % of control

CCOC(=O)/C=C(\CBr)OC
inactive: [17] 105 % of control | [18] 98 % of control | dose: 25.0 mg/kg/injection, schedule: Q04DX003 (ip), vehicle: Klucel (hydroxypropylcellulose) (HPC) 90 % of control | [16] 94 % of control and 103 % of control | dose: 50.0 mg/kg/injection, schedule: Q04DX003 (ip), vehicle: Klucel (hydroxypropylcellulose) (HPC) 96 % of control | [3] 96 % of control

OC(c1nc2ccccc2[nH]1)C(O)c1nc2ccccc2[nH]1 (configuration not stated)
inactive: dose: 75.0 mg/kg/injection, schedule: Q01DX001 (ip), vehicle: saline 102 % of control | dose: 150.0 mg/kg/injection, schedule: Q01DX001 (ip), vehicle: saline 109 % of control | dose: 300.0 mg/kg/injection, schedule: Q01DX001 (ip), vehicle: saline 102 % of control

COP(=O)(OC)OC1C(=O)NC(=O)NC1=O
inactive: dose: 50.0 mg/kg/injection, schedule: Q01DX001 (ip), vehicle: carboxymethylcellulose (CMC) 98 % of control | [14] 93 % of control | [15] 96 % of control | dose: 400.0 mg/kg/injection, schedule: Q01DX001 (ip), vehicle: carboxymethylcellulose (CMC) 96 % of control

COc1ccc(NC(=O)N2CCOCC2)cc1OC
inactive: [19] 102 % of control | [20] 96 % of control | [21] 89 % of control

O=C(N/N=C\c1ccccc1C(=O)O)c1ccco1
inactive: dose: 100.0 mg/kg/injection, schedule: Q01DX001 (ip), vehicle: other 87 % of control | dose: 200.0 mg/kg/injection, schedule: Q01DX001 (ip), vehicle: other 93 % of control | dose: 400.0 mg/kg/injection, schedule: Q01DX001 (ip), vehicle: other 90 % of control

N#CCCCN1CCOCC1
inactive: dose: 100.0 mg/kg/injection, schedule: Q04DX003 (ip), vehicle: saline 96 % of control | dose: 200.0 mg/kg/injection, schedule: Q04DX003 (ip), vehicle: saline 96 % of control | dose: 400.0 mg/kg/injection, schedule: Q04DX003 (ip), vehicle: saline 104 % of control

C(=N\C(/N=C/c1ccccc1)c1ccccc1)/c1ccccc1
inactive: [1] 96 % of control | [3] 92 % of control | [4] 94 % of control | [6] 94 % of control | [7] 92 % of control | [9] 92 % of control

NCC(=O)c1cccc2ccc[n+]([O-])c12
inactive: [16] 97 % of control | [1] 97 % of control | [3] 95 % of control | [6] 98 % of control

Cc1ccc(S(=O)(=O)N(C)c2ccc(C(=O)O)c3ccccc23)cc1
inactive: [19] 105 % of control | [20] 97 % of control | [21] 100 % of control

CCCC(C)OC(=O)Nc1cccc(O)c1 (configuration not stated)
inactive: [11] 101 % of control | [12] 101 % of control | [13] 102 % of control

COc1ccc(OC)c(NC(=O)N(CCO)C2CCCCC2)c1
inactive: [3] 90 % of control | [9] 97 % of control

COc1ccc2c(c1)CCC(CC(C)=O)C2=O (configuration not stated)
inactive: dose: 100.0 mg/kg/injection, schedule: Q04DX003 (ip), vehicle: saline sonified 99 % of control | dose: 200.0 mg/kg/injection, schedule: Q04DX003 (ip), vehicle: saline sonified 90 % of control | dose: 400.0 mg/kg/injection, schedule: Q04DX003 (ip), vehicle: saline sonified 89 % of control

O=C1c2ccccc2C(=O)N1CCCO
inactive: dose: 50.0 mg/kg/injection, schedule: Q01DX001 (ip), vehicle: Klucel (hydroxypropylcellulose) (HPC) 96 % of control | dose: 100.0 mg/kg/injection, schedule: Q01DX001 (ip), vehicle: Klucel (hydroxypropylcellulose) (HPC) 100 % of control | dose: 200.0 mg/kg/injection, schedule: Q01DX001 (ip), vehicle: Klucel (hydroxypropylcellulose) (HPC) 102 % of control
